What all share (test): relative viability (nuclei count vs DMSO), 5 days (fraction); higher = more cells survive
Compound in the assay “IDH-C35 + Tozasertib”: Cc1ccccc1C(C(=O)NC1CCCCC1)N(C(=O)Cn1ccnc1C)c1cccc(F)c1 [IDH-C35] + Cc1cc(Nc2cc(N3CCN(C)CC3)nc(Sc3ccc(NC(=O)C4CC4)cc3)n2)n[nH]1 [Tozasertib] (partner 0.1 µM)
In short, it runs like this: (§1)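 Relative viability is defined as nuclei in treated wells over nuclei in vehicle wells. Duplicate plates were run and medians reported. Lung cancer cell lines in 1536-well plates were dosed by pin tool one day after seeding, with one drug or with a fixed anchor-drug dose plus five library-drug doses (not always all listed) in √10 steps, and nuclei were counted after 5 days.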

Compound in the assay “IDH-C35 + Palbociclib”: Cc1ccccc1C(C(=O)NC1CCCCC1)N(C(=O)Cn1ccnc1C)c1cccc(F)c1 [IDH-C35] + CC(=O)c1c(C)c2cnc(Nc3ccc(N4CCNCC4)cn3)nc2n(C2CCCC2)c1=O [Palbociclib] (partner 0.5 µM)
Put shortly:
as §1

Compound in the assay “IDH-C35 + Phenformin”: Cc1ccccc1C(C(=O)NC1CCCCC1)N(C(=O)Cn1ccnc1C)c1cccc(F)c1 [IDH-C35] + N=C(N)NC(=N)NCCc1ccccc1 [Phenformin] (partner 250 µM)
In short, it runs like this:
as §1

Compound in the assay “IDH-C35 + Alpelisib”: Cc1ccccc1C(C(=O)NC1CCCCC1)N(C(=O)Cn1ccnc1C)c1cccc(F)c1 [IDH-C35] + Cc1nc(NC(=O)N2CCC[C@H]2C(N)=O)sc1-c1ccnc(C(C)(C)C(F)(F)F)c1 [Alpelisib] (partner 2 µM)
In short, it runs like this: as §1

We go through seven cell lines from the supplement of paper PMC10307832.

As to PC-3 [JPC-3], the relative viability with IDH-C35 + Tozasertib (first compound 0.08 µM) amounted to 0.803; in the assay with IDH-C35 + Tozasertib (first compound 0.253 µM) it was 0.898; in the assay with IDH-C35 + Tozasertib (first compound 0.8 µM), 0.861; with IDH-C35 + Tozasertib (first compound 2.53 µM), 0.852; in the assay with IDH-C35 + Tozasertib (first compound 8 µM), 0.927; in the assay with IDH-C35 + Palbociclib (first compound 0.08 µM), 0.563. Moreover, the relative viability in the assay with IDH-C35 + Palbociclib (first compound 0.253 µM) was 0.532; with IDH-C35 + Palbociclib (first compound 0.8 µM), 0.558; in the assay with IDH-C35 + Palbociclib (first compound 2.53 µM), 0.587; in the assay with IDH-C35 + Palbociclib (first compound 8 µM), 0.534; with IDH-C35 + Phenformin (first compound 0.08 µM) it was 0.471; with IDH-C35 + Phenformin (first compound 0.253 µM), 0.447. Besides, the relative viability with IDH-C35 + Phenformin (first compound 0.8 µM) turned out to be 0.521; in the assay with IDH-C35 + Phenformin (first compound 2.53 µM), 0.509; in the assay with IDH-C35 + Phenformin (first compound 8 µM) it was 0.453; in the assay with IDH-C35 + Alpelisib (first compound 0.08 µM) it was 1.08; with IDH-C35 + Alpelisib (first compound 0.253 µM), 1.04; with IDH-C35 + Alpelisib (first compound 0.8 µM) it was 0.988. Also, the relative viability with IDH-C35 + Alpelisib (first compound 2.53 µM) is 1.08; with IDH-C35 + Alpelisib (first compound 8 µM), 1.04.

In the case of PC-14, the relative viability with IDH-C35 + Tozasertib (first compound 0.08 µM) stood at 0.634; with IDH-C35 + Tozasertib (first compound 0.253 µM), 0.542; with IDH-C35 + Tozasertib (first compound 0.8 µM), 0.611; in the assay with IDH-C35 + Tozasertib (first compound 2.53 µM), 0.58; in the assay with IDH-C35 + Tozasertib (first compound 8 µM), 0.557; with IDH-C35 + Palbociclib (first compound 0.08 µM), 0.515. Also, the relative viability is 0.511 in the assay with IDH-C35 + Palbociclib (first compound 0.253 µM); 0.484 with IDH-C35 + Palbociclib (first compound 0.8 µM); 0.573 with IDH-C35 + Palbociclib (first compound 2.53 µM); 0.441 with IDH-C35 + Palbociclib (first compound 8 µM); 0.53 with IDH-C35 + Phenformin (first compound 0.08 µM); 0.611 with IDH-C35 + Phenformin (first compound 0.253 µM). The relative viability turned out to be 0.642 in the assay with IDH-C35 + Phenformin (first compound 0.8 µM); 0.434 with IDH-C35 + Phenformin (first compound 2.53 µM); 0.662 with IDH-C35 + Phenformin (first compound 8 µM); 1.02 in the assay with IDH-C35 + Alpelisib (first compound 0.08 µM); 0.956 with IDH-C35 + Alpelisib (first compound 0.253 µM); 0.959 in the assay with IDH-C35 + Alpelisib (first compound 0.8 µM). Further, the relative viability was 0.927 in the assay with IDH-C35 + Alpelisib (first compound 2.53 µM) and 0.758 with IDH-C35 + Alpelisib (first compound 8 µM).

With RERF-LC-KJ, the relative viability with IDH-C35 + Tozasertib (first compound 0.08 µM) is 0.396; with IDH-C35 + Tozasertib (first compound 0.253 µM), 0.503; in the assay with IDH-C35 + Tozasertib (first compound 0.8 µM) it was 0.489; with IDH-C35 + Tozasertib (first compound 2.53 µM) it was 0.544; with IDH-C35 + Tozasertib (first compound 8 µM), 0.442; with IDH-C35 + Palbociclib (first compound 0.08 µM) it was 1.08. The relative viability with IDH-C35 + Palbociclib (first compound 0.253 µM) came to 1.03; with IDH-C35 + Palbociclib (first compound 0.8 µM), 0.991; with IDH-C35 + Palbociclib (first compound 2.53 µM), 1.1; with IDH-C35 + Palbociclib (first compound 8 µM) it was 1.09; with IDH-C35 + Phenformin (first compound 0.08 µM), 0.415; with IDH-C35 + Phenformin (first compound 0.253 µM) it was 0.443. The relative viability with IDH-C35 + Phenformin (first compound 0.8 µM) turned out to be 0.419; with IDH-C35 + Phenformin (first compound 2.53 µM) it was 0.456; with IDH-C35 + Phenformin (first compound 8 µM), 0.403; with IDH-C35 + Alpelisib (first compound 0.08 µM), 0.824; in the assay with IDH-C35 + Alpelisib (first compound 0.253 µM), 0.827; with IDH-C35 + Alpelisib (first compound 0.8 µM), 0.853. Also, the relative viability turned out to be 0.73 with IDH-C35 + Alpelisib (first compound 2.53 µM) and 0.886 with IDH-C35 + Alpelisib (first compound 8 µM).

For the cell line SK-LU-1, the relative viability amounted to 0.359 with IDH-C35 + Tozasertib (first compound 0.08 µM); 0.347 with IDH-C35 + Tozasertib (first compound 0.253 µM); 0.364 with IDH-C35 + Tozasertib (first compound 0.8 µM); 0.341 with IDH-C35 + Tozasertib (first compound 2.53 µM); 0.341 with IDH-C35 + Tozasertib (first compound 8 µM); 0.47 with IDH-C35 + Palbociclib (first compound 0.08 µM). Besides, the relative viability stood at 0.387 with IDH-C35 + Palbociclib (first compound 0.253 µM); 0.366 with IDH-C35 + Palbociclib (first compound 0.8 µM); 0.391 with IDH-C35 + Palbociclib (first compound 2.53 µM); 0.418 in the assay with IDH-C35 + Palbociclib (first compound 8 µM); 0.604 with IDH-C35 + Phenformin (first compound 0.08 µM); 0.541 in the assay with IDH-C35 + Phenformin (first compound 0.253 µM). Besides, the relative viability with IDH-C35 + Phenformin (first compound 0.8 µM) came to 0.558; in the assay with IDH-C35 + Phenformin (first compound 2.53 µM) it was 0.628; in the assay with IDH-C35 + Phenformin (first compound 8 µM) it was 0.527; with IDH-C35 + Alpelisib (first compound 0.08 µM), 0.993; with IDH-C35 + Alpelisib (first compound 0.253 µM), 0.918; with IDH-C35 + Alpelisib (first compound 0.8 µM), 1.29. Moreover, the results for the relative viability with IDH-C35 + Alpelisib (first compound 2.53 µM) and with IDH-C35 + Alpelisib (first compound 8 µM) were 1.11 and 0.934, respectively.

Take SK-MES-1: the relative viability with IDH-C35 + Tozasertib (first compound 0.08 µM) was 0.927; with IDH-C35 + Tozasertib (first compound 0.253 µM), 0.86; with IDH-C35 + Tozasertib (first compound 0.8 µM), 0.88; with IDH-C35 + Tozasertib (first compound 2.53 µM) it was 0.863; in the assay with IDH-C35 + Tozasertib (first compound 8 µM), 0.761; in the assay with IDH-C35 + Palbociclib (first compound 0.08 µM), 0.307. In addition, the relative viability in the assay with IDH-C35 + Palbociclib (first compound 0.253 µM) came to 0.286; with IDH-C35 + Palbociclib (first compound 0.8 µM), 0.301; with IDH-C35 + Palbociclib (first compound 2.53 µM), 0.317; with IDH-C35 + Palbociclib (first compound 8 µM), 0.271; in the assay with IDH-C35 + Phenformin (first compound 0.08 µM), 0.696; in the assay with IDH-C35 + Phenformin (first compound 0.253 µM) it was 0.649. Further, the relative viability came to 0.6 with IDH-C35 + Phenformin (first compound 0.8 µM); 0.673 with IDH-C35 + Phenformin (first compound 2.53 µM); 0.648 in the assay with IDH-C35 + Phenformin (first compound 8 µM); 1.02 with IDH-C35 + Alpelisib (first compound 0.08 µM); 1.01 with IDH-C35 + Alpelisib (first compound 0.253 µM); 0.873 with IDH-C35 + Alpelisib (first compound 0.8 µM). For the same cell line, the results for the relative viability with IDH-C35 + Alpelisib (first compound 2.53 µM) and with IDH-C35 + Alpelisib (first compound 8 µM) were 0.887 and 0.833, respectively.

Turning to SW 1573, the relative viability with IDH-C35 + Tozasertib (first compound 0.08 µM) was 0.187; with IDH-C35 + Tozasertib (first compound 0.253 µM), 0.14; with IDH-C35 + Tozasertib (first compound 0.8 µM), 0.239; with IDH-C35 + Tozasertib (first compound 2.53 µM), 0.194; with IDH-C35 + Tozasertib (first compound 8 µM), 0.184; with IDH-C35 + Palbociclib (first compound 0.08 µM), 0.43. The relative viability with IDH-C35 + Palbociclib (first compound 0.253 µM) was 0.432; in the assay with IDH-C35 + Palbociclib (first compound 0.8 µM) it was 0.388; with IDH-C35 + Palbociclib (first compound 2.53 µM) it was 0.462; with IDH-C35 + Palbociclib (first compound 8 µM), 0.353; with IDH-C35 + Phenformin (first compound 0.08 µM), 0.456; with IDH-C35 + Phenformin (first compound 0.253 µM), 0.372. Further, the relative viability with IDH-C35 + Phenformin (first compound 0.8 µM) amounted to 0.387; with IDH-C35 + Phenformin (first compound 2.53 µM), 0.359; with IDH-C35 + Phenformin (first compound 8 µM), 0.352; with IDH-C35 + Alpelisib (first compound 0.08 µM) it was 0.745; with IDH-C35 + Alpelisib (first compound 0.253 µM), 0.699; in the assay with IDH-C35 + Alpelisib (first compound 0.8 µM), 0.685. For the same cell line, the figures for the relative viability with IDH-C35 + Alpelisib (first compound 2.53 µM) and in the assay with IDH-C35 + Alpelisib (first compound 8 µM) were 0.692 and 0.754, respectively.

On to UMC-11, for which the relative viability with IDH-C35 + Tozasertib (first compound 0.08 µM) turned out to be 0.199; with IDH-C35 + Tozasertib (first compound 0.253 µM), 0.198; with IDH-C35 + Tozasertib (first compound 0.8 µM), 0.197; in the assay with IDH-C35 + Tozasertib (first compound 2.53 µM), 0.198; in the assay with IDH-C35 + Tozasertib (first compound 8 µM), 0.193; with IDH-C35 + Palbociclib (first compound 0.08 µM) it was 0.335. In addition, the relative viability in the assay with IDH-C35 + Palbociclib (first compound 0.253 µM) came to 0.32; with IDH-C35 + Palbociclib (first compound 0.8 µM), 0.341; in the assay with IDH-C35 + Palbociclib (first compound 2.53 µM), 0.299; in the assay with IDH-C35 + Palbociclib (first compound 8 µM), 0.337; with IDH-C35 + Phenformin (first compound 0.08 µM) it was 0.317; with IDH-C35 + Phenformin (first compound 0.253 µM) it was 0.337. For the same cell line, the relative viability with IDH-C35 + Phenformin (first compound 0.8 µM) turned out to be 0.33; with IDH-C35 + Phenformin (first compound 2.53 µM), 0.313; with IDH-C35 + Phenformin (first compound 8 µM) it was 0.291; with IDH-C35 + Alpelisib (first compound 0.08 µM) it was 0.998; in the assay with IDH-C35 + Alpelisib (first compound 0.253 µM), 0.973; with IDH-C35 + Alpelisib (first compound 0.8 µM), 0.928. In addition, the relative viability in the assay with IDH-C35 + Alpelisib (first compound 2.53 µM) is 0.946; in the assay with IDH-C35 + Alpelisib (first compound 8 µM) it was 0.988.
